Results from US20160166676A1 (priority 2013, published 2016).

How the values were obtained:
[1] = target: STING deletion mutant DN5 (162-N) (Homo sapiens, UniProt Q86WV6); type: binding
[2] = tested on: CTLL-2 cells; type: cell-based

STING deletion mutant DN5 (162-N), sequence (Q86WV6 162-379, stated change not applied): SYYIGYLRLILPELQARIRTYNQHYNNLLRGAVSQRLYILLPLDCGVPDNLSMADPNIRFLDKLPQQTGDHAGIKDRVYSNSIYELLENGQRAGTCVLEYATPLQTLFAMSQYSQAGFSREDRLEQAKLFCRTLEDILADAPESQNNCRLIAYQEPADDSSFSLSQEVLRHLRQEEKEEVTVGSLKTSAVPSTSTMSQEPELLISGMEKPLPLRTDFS

For “GLFGAIAGFIENGWEGCGGEKEKEK [IN F#2 dimer]”, the “pulldown of STING deletion mutant DN5 (162-N) by biotinylated peptide” value [1] was “readily pulled down” and the “proliferation of CTLL-2 cells” value [2] was “inhibits the proliferation of CTLL-2 cells”.
